Consider 22 compounds from patent publication US9365576B2, “Pyrrolopyrrolidinone compounds” (Novartis AG, priority 2012, dated 2016).

Structures are written as SMILES.

In the experiment the target is human MDM2 protein (amino acids 2-188) (Homo sapiens (Human), UniProt Q00987). In words: TR-FRET assay, p53-MDM2 Assay 2 (modified). The format is binding. The following applies: TR-FRET; 0.1 nM MDM2, 0.1 nM Europium labeled streptavidin, Tecan genios Pro reader; read-out: IC50 p53-MDM2 Assay 2. The method, then: The inhibition of p53-MDM2 and p53-MDM4 interactions is measured by time resolved fluorescence energy transfer (TR-FRET). Fluorescence energy transfer (or Foerster resonance energy transfer) describes an energy transfer between donor and acceptor fluorescent molecules. For this assay, human MDM2 protein (amino acids 2-188) and human MDM4 protein (amino acids 2-185), tagged with a C-terminal biotin moiety, are used in combination with a Europium labeled streptavidin (Perkin Elmer, Inc., Waltham, Mass., USA) serving as the donor fluorophore. The p53 derived, Cy5 labeled peptide Cy5-[…] (p53 aa18-26) is the energy acceptor. Upon excitation of the donor molecule at 340 nm, binding interaction between MDM2 or MDM4 and the p53 peptide induces energy transfer and enhanced response at the acceptor emission wavelength at 665 nm. […] The ratiometric FRET assay readout is calculated from the raw data of the two distinct fluorescence signals measured in time resolved mode (fluorescence 665 nm/fluorescence 620 nm×1000).
After addition of 1.25 nM MDM2-biotinylated or 2.5 nM MDM4-biotinylated (internal preparations), and 0.625 nM Europium labeled streptavidin (Perkin Elmer), the solution is pre-incubated for 15 minutes at room temperature, then 10 nM Cy5-p53 peptide (internal preparation) is added before an incubation at room temperature for 15 minutes prior to reading the plate. For measurement of samples, a Victor II microplate reader (Perkin Elmer) is used with the following settings: Excitation 340 nm, Emission Donor 620 nm and Emission Acceptor 665 nm. IC50 values are calculated by curve fitting using XLfit. If not specified, reagents are purchased from Sigma-Aldrich Chemie GmBH, Buchs, Switzerland.

Chain of human MDM2 protein (amino acids 2-188) (Q00987 2-188): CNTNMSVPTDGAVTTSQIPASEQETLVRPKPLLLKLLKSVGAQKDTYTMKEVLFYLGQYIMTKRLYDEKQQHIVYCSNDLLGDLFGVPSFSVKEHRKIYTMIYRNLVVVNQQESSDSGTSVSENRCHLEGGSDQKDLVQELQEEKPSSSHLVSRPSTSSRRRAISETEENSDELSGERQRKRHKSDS

On to `COc1cn(C)c(=O)cc1-c1cc2c(n1C(C)C)C(c1ccc(Cl)cc1)N(c1cc(Cl)c(=O)n(C)c1)C2=O` (stereo not shown) [Example 150, 5-(5-Chloro-1-methyl-6-oxo-1,6-dihydro-pyridin-3-yl)-6-(4-chloro-phenyl)-1-isopropyl-2-(5-methoxy-1-methyl-2-oxo-1,2-dihydro-pyridin-4-yl)-5,6-dihydro-1H-pyrrolo[3,4-b]pyrrol-4-one], for which the IC50 turned out to be 0.254 nM.
On to `COc1ncc(-c2cc3c(n2C(C)C)C(c2ccc(Cl)cc2)N(c2cn(C)c(=O)cc2C)C3=O)c(OC)n1` (stereo not shown) [Example 111, 6-(4-Chloro-phenyl)-2-(2,4-dimethoxy-pyrimidin-5-yl)-5-(1,4-dimethyl-6-oxo-1,6-dihydro-pyridin-3-yl)-1-isopropyl-5,6-dihydro-1H-pyrrolo[3,4-b]pyrrol-4-one], for which the IC50 was found to be 1.84 nM.
Regarding `COc1nc(N)ncc1-c1cc2c(n1C(C)C)C(c1ccc(Cl)cc1)N(c1cc(Cl)c(=O)n(C)c1)C2=O` (stereo not shown) [Example 51, 2-(2-Amino-4-methoxy-pyrimidin-5-yl)-5-(5-chloro-1-methyl-6-oxo-1,6-dihydro-pyridin-3-yl)-6-(4-chloro-phenyl)-1-isopropyl-5,6-dihydro-1H-pyrrolo[3,4-b]pyrrol-4-one], the IC50 turned out to be 0.461 nM.
With `COc1ccc(C(N)=O)cc1-c1cc2c(n1C(C)C)C(c1ccc(Cl)cc1)N(c1cc(Cl)ccc1C)C2=O` (stereo not shown) [Example 61, 3-[5-(5-Chloro-2-methyl-phenyl)-6-(4-chloro-phenyl)-1-isopropyl-4-oxo-1,4,5,6-tetrahydro-pyrrolo[3,4-b]pyrrol-2-yl]-4-methoxy-benzamide], the IC50 worked out at 0.104 nM.
For the compound `COc1ncc(-c2cc3c(n2C(C)C)[C@H](c2ccc(C#N)cc2)N(c2cc(Cl)c(=O)n(C)c2)C3=O)c(OC)n1` [Example 186, 4-[(S)-5-(5-Chloro-1-methyl-6-oxo-1,6-dihydro-pyridin-3-yl)-2-(2,4-dimethoxy-pyrimidin-5-yl)-1-isopropyl-4-oxo-1,4,5,6-tetrahydro-pyrrolo[3,4-b]pyrrol-6-yl]-benzonitrile], the IC50 was 0.108 nM.
On to `COc1nc(N)ncc1-c1cc2c(n1C(C)C)C(c1ccc(C#N)cc1)N(c1cccc(Cl)c1F)C2=O` (stereo not shown) [Example 41, 4-[2-(2-Amino-4-methoxy-pyrimidin-5-yl)-5-(3-chloro-2-fluoro-phenyl)-1-isopropyl-4-oxo-1,4,5,6-tetrahydro-pyrrolo[3,4-b]pyrrol-6-yl]-benzonitrile], for which the IC50 was 0.349 nM.
With `COc1cn(C)c(=O)cc1-c1cc2c(n1C(C)C)C(c1ccc(Cl)cc1)N(c1cc(C)nn1C)C2=O` (stereo not shown) [Example 178, 6-(4-Chloro-phenyl)-5-(2,5-dimethyl-2H-pyrazol-3-yl)-1-isopropyl-2-(5-methoxy-1-methyl-2-oxo-1,2-dihydro-pyridin-4-yl)-5,6-dihydro-1H-pyrrolo[3,4-b]pyrrol-4-one] the figure was 1.07 nM.
With `COc1nc(N(C)C)ncc1-c1cc2c(n1C(C)C)[C@H](c1ccc(C#N)cc1)N(c1ccc(F)c(Cl)c1)C2=O` [Example 169, 4-[(S)-5-(3-Chloro-4-fluoro-phenyl)-2-(2-dimethylamino-4-methoxy-pyrimidin-5-yl)-1-isopropyl-4-oxo-1,4,5,6-tetrahydro-pyrrolo[3,4-b]pyrrol-6-yl]-benzonitrile] the figure was 0.357 nM; with `COc1cnc(CC(=O)O)cc1-c1cc2c(n1C(C)C)C(c1ccc(C#N)cc1)N(c1cccc(Cl)c1F)C2=O` (stereo not shown) [Example 84, {4-[5-(3-Chloro-2-fluoro-phenyl)-6-(4-cyano-phenyl)-1-isopropyl-4-oxo-1,4,5,6-tetrahydro-pyrrolo[3,4-b]pyrrol-2-yl]-5-methoxy-pyridin-2-yl}-acetic acid], 0.482 nM.
For `COc1ncc(-c2cc3c(n2C(C)C)C(c2ccc(Cl)cc2)N(c2cc(Cl)c(=O)n(C)c2F)C3=O)c(OC)n1` (stereo not shown) [Example 156, 5-(5-Chloro-2-fluoro-1-methyl-6-oxo-1,6-dihydro-pyridin-3-yl)-6-(4-chloro-phenyl)-2-(2,4-dimethoxy-pyrimidin-5-yl)-1-isopropyl-5,6-dihydro-1H-pyrrolo[3,4-b]pyrrol-4-one], the IC50 was determined as 0.122 nM.
As to `COc1ccc(CC(=O)O)cc1-c1cc2c(n1C(C)C)[C@H](c1ccc(Cl)cc1)N(c1cc(Cl)ccc1C)C2=O` [Example 91, {3-[(S)-5-(5-Chloro-2-methyl-phenyl)-6-(4-chloro-phenyl)-1-isopropyl-4-oxo-1,4,5,6-tetrahydro-pyrrolo[3,4-b]pyrrol-2-yl]-4-methoxy-phenyl}-acetic acid], the IC50 was found to be 0.061 nM.
Consider `COc1nc(N(C)C)ncc1-c1cc2c(n1C(C)C)C(c1ccc(C#N)cc1)N(c1cc(Cl)cn(C)c1=O)C2=O` (stereo not shown) [Example 131, 4-[5-(5-Chloro-1-methyl-2-oxo-1,2-dihydro-pyridin-3-yl)-2-(2-dimethylamino-4-methoxy-pyrimidin-5-yl)-1-isopropyl-4-oxo-1,4,5,6-tetrahydro-pyrrolo[3,4-b]pyrrol-6-yl]-benzonitrile], for which the IC50 stood at 0.295 nM.
`COc1nc(N(C)C)ncc1-c1cc2c(n1C(C)C)C(c1ccc(Cl)cc1)N(c1cc(C)nn1C)C2=O` (stereo not shown) [Example 177, 6-(4-Chloro-phenyl)-2-(2-dimethylamino-4-methoxy-pyrimidin-5-yl)-5-(2,5-dimethyl-2H-pyrazol-3-yl)-1-isopropyl-5,6-dihydro-1H-pyrrolo[3,4-b]pyrrol-4-one]: the half-maximal inhibitory concentration (IC50) turned out to be 0.514 nM.
With `COc1nc(N(C)C)ncc1-c1cc2c(n1C(C)C)[C@@H](c1ccc(Cl)c(F)c1)N(c1cc(Cl)c[nH]c1=O)C2=O` [Example 228, (R)-6-(4-Chloro-3-fluoro-phenyl)-5-(5-chloro-2-oxo-1,2-dihydro-pyridin-3-yl)-2-(2-dimethylamino-4-methoxy-pyrimidin-5-yl)-1-isopropyl-5,6-dihydro-1H-pyrrolo[3,4-b]pyrrol-4-one] the figure was 48.7 nM; with `COc1ccc(C(=O)N(C)C)cc1-c1cc2c(n1C(C)C)C(c1ccc(Cl)cc1)N(c1cc(Cl)ccc1C)C2=O` (stereo not shown) [Example 15, 3-[5-(5-Chloro-2-methyl-phenyl)-6-(4-chloro-phenyl)-1-isopropyl-4-oxo-1,4,5,6-tetrahydro-pyrrolo[3,4-b]pyrrol-2-yl]-4-methoxy-N,N-dimethyl-benzamide], 0.133 nM; with `COc1ccc(C(=O)O)cc1-c1cc2c(n1C(C)C)C(c1ccc(Cl)cc1)N(c1cc(Cl)ccc1C)C2=O` (stereo not shown) [Example 35, 3-[5-(5-Chloro-2-methyl-phenyl)-6-(4-chloro-phenyl)-1-isopropyl-4-oxo-1,4,5,6-tetrahydro-pyrrolo[3,4-b]pyrrol-2-yl]-4-methoxy-benzoic acid], 0.169 nM.
`COc1ccc(CC(=O)O)cc1-c1cc2c(n1C(C)C)C(c1ccc(Cl)cc1)N(c1cc(Cl)ccc1C)C2=O` (stereo not shown) [Example 60, {3-[5-(5-Chloro-2-methyl-phenyl)-6-(4-chloro-phenyl)-1-isopropyl-4-oxo-1,4,5,6-tetrahydro-pyrrolo[3,4-b]pyrrol-2-yl]-4-methoxy-phenyl}-acetic acid]: the IC50 worked out at 0.155 nM.
With `COc1nc(N(C)C)ncc1-c1cc2c(n1C(C)C)C(c1ccc(Cl)cc1)N(c1c[nH]c(=O)c(Cl)c1)C2=O` (stereo not shown) [Example 140, 5-(5-Chloro-6-oxo-1,6-dihydro-pyridin-3-yl)-6-(4-chloro-phenyl)-2-(2-dimethylamino-4-methoxy-pyrimidin-5-yl)-1-isopropyl-1-5,6-dihydro-1H-pyrrolo[3,4-b]pyrrol-4-one] the figure was 0.231 nM; with `COc1ccc(C(=O)O)cc1-c1cc2c(n1C(C)C)[C@@H](c1ccc(Cl)cc1)N(c1cc(Cl)ccc1C)C2=O` [Example 90, 3-[(R)-5-(5-Chloro-2-methyl-phenyl)-6-(4-chloro-phenyl)-1-isopropyl-4-oxo-1,4,5,6-tetrahydro-pyrrolo[3,4-b]pyrrol-2-yl]-4-methoxy-benzoic acid], 6.21 nM.
Take `COc1ncc(-c2cc3c(n2C(C)C)C(c2ccc(C#N)cc2)N(c2c(F)c(C)nn2C)C3=O)c(OC)n1` (stereo not shown) [Example 211, 4-[2-(2,4-Dimethoxy-pyrimidin-5-yl)-5-(4-fluoro-2,5-dimethyl-2H-pyrazol-3-yl)-1-isopropyl-4-oxo-1,4,5,6-tetrahydro-pyrrolo[3,4-b]pyrrol-6-yl]-benzonitrile]: the IC50 came out at 1.68 nM.
Next, `COc1ncc(-c2cc3c(n2C(C)C)C(c2ccc(Cl)cc2C)N(c2cc(Cl)c(=O)n(C)c2)C3=O)c(OC)n1` (stereo not shown) [Example 146, 5-(5-Chloro-1-methyl-6-oxo-1,6-dihydro-pyridin-3-yl)-6-(4-chloro-2-methyl-phenyl)-2-(2,4-dimethoxy-pyrimidin-5-yl)-1-isopropyl-5,6-dihydro-1H-pyrrolo[3,4-b]pyrrol-4-one]: 0.216 nM.
With `COc1nc(N(C)C)ncc1-c1cc2c(n1C(C)C)C(c1ccc(C#N)cc1)N(c1cc(Cl)cnc1OC)C2=O` (stereo not shown) [Example 207, 4-[5-[5-Chloro-2-methoxy-pyridin-3-yl)-2-(2-dimethylamino-4-methoxy-pyrimidin-5-yl)-1-isopropyl-4-oxo-1,4,5,6-tetrahydro-pyrrolo[3,4-b]pyrrol-6-yl]-benzonitrile] the figure was 0.185 nM.
